From the NIST ThermoML archive (doi:10.1021/acs.jced.7b00106)

Details: Hot wire method

FC(F)(F)/C=C/Cl [(E)-1-chloro-3,3,3-trifluoroprop-1-ene]
Details | thermal conductivity [W/m/K]
402.34 K, 675 kPa, Fluid (supercritical or subcritical phases) | 0.01919
402.35 K, 18638 kPa, Liquid | 0.06815
402.35 K, 18644 kPa, Liquid | 0.06814
402.36 K, 4694 kPa, Liquid | 0.05768
402.36 K, 4699 kPa, Liquid | 0.05769
402.37 K, 9102 kPa, Liquid | 0.06154
402.37 K, 9105 kPa, Liquid | 0.06157
402.37 K, 33596 kPa, Liquid | 0.07616
402.38 K, 1202 kPa, Fluid (supercritical or subcritical phases) | 0.01949
402.38 K, 1203 kPa, Fluid (supercritical or subcritical phases) | 0.0195
402.38 K, 1623 kPa, Fluid (supercritical or subcritical phases) | 0.02057
402.38 K, 1624 kPa, Fluid (supercritical or subcritical phases) | 0.02063
402.38 K, 33572 kPa, Liquid | 0.0761
402.41 K, 3571 kPa, Liquid | 0.05649
402.41 K, 3575 kPa, Liquid | 0.05649
402.42 K, 1105 kPa, Fluid (supercritical or subcritical phases) | 0.01939
402.43 K, 1105 kPa, Fluid (supercritical or subcritical phases) | 0.01943
402.43 K, 7089 kPa, Liquid | 0.05988
402.44 K, 2633 kPa, Liquid | 0.05536
402.44 K, 2641 kPa, Liquid | 0.05542
402.44 K, 7097 kPa, Liquid | 0.05991
402.44 K, 15789 kPa, Liquid | 0.06632
402.44 K, 15790 kPa, Liquid | 0.06635
402.44 K, 24987 kPa, Liquid | 0.07171
402.44 K, 24992 kPa, Liquid | 0.07169
402.46 K, 1000 kPa, Fluid (supercritical or subcritical phases) | 0.01927
402.47 K, 1001 kPa, Fluid (supercritical or subcritical phases) | 0.01932
402.47 K, 1515 kPa, Fluid (supercritical or subcritical phases) | 0.02021
402.47 K, 1844 kPa, Liquid | 0.0544
402.47 K, 1854 kPa, Liquid | 0.05447
402.48 K, 1515 kPa, Fluid (supercritical or subcritical phases) | 0.02026
402.5 K, 848 kPa, Fluid (supercritical or subcritical phases) | 0.01923
402.5 K, 13367 kPa, Liquid | 0.06472
402.5 K, 13371 kPa, Liquid | 0.0647
402.51 K, 846 kPa, Fluid (supercritical or subcritical phases) | 0.01926
402.52 K, 1406 kPa, Fluid (supercritical or subcritical phases) | 0.01993
402.52 K, 1407 kPa, Fluid (supercritical or subcritical phases) | 0.01994
402.53 K, 21658 kPa, Liquid | 0.06987
402.54 K, 21643 kPa, Liquid | 0.06986
402.56 K, 28722 kPa, Liquid | 0.07362
402.57 K, 5983 kPa, Liquid | 0.05888
402.57 K, 5985 kPa, Liquid | 0.05888
402.57 K, 11101 kPa, Liquid | 0.06313
402.57 K, 28741 kPa, Liquid | 0.07367
402.58 K, 1306 kPa, Fluid (supercritical or subcritical phases) | 0.01976
402.58 K, 1307 kPa, Fluid (supercritical or subcritical phases) | 0.01973
402.58 K, 11088 kPa, Liquid | 0.06313
402.6 K, 18623 kPa, Liquid | 0.06809
402.61 K, 676 kPa, Fluid (supercritical or subcritical phases) | 0.01925
402.61 K, 4688 kPa, Liquid | 0.05758
402.61 K, 18624 kPa, Liquid | 0.06809
402.61 K, 33585 kPa, Liquid | 0.07607
402.62 K, 4693 kPa, Liquid | 0.05763
402.62 K, 33568 kPa, Liquid | 0.07592
402.63 K, 1203 kPa, Fluid (supercritical or subcritical phases) | 0.01956
402.63 K, 9088 kPa, Liquid | 0.06152
402.63 K, 9104 kPa, Liquid | 0.06148
402.65 K, 1203 kPa, Fluid (supercritical or subcritical phases) | 0.01959
402.66 K, 3574 kPa, Liquid | 0.05645
402.66 K, 3575 kPa, Liquid | 0.05645
402.69 K, 1104 kPa, Fluid (supercritical or subcritical phases) | 0.01945
402.69 K, 1106 kPa, Fluid (supercritical or subcritical phases) | 0.01948
402.69 K, 7089 kPa, Liquid | 0.05985
402.69 K, 15783 kPa, Liquid | 0.06633
402.69 K, 15792 kPa, Liquid | 0.06633
402.69 K, 24993 kPa, Liquid | 0.07169
402.7 K, 2638 kPa, Liquid | 0.0554
402.7 K, 7091 kPa, Liquid | 0.0599
402.7 K, 25001 kPa, Liquid | 0.07172
402.71 K, 2639 kPa, Liquid | 0.05542
402.74 K, 1850 kPa, Liquid | 0.05446
402.75 K, 1000 kPa, Fluid (supercritical or subcritical phases) | 0.01939
402.75 K, 1852 kPa, Liquid | 0.05457
402.76 K, 13350 kPa, Liquid | 0.06467
402.76 K, 13371 kPa, Liquid | 0.06472
402.78 K, 848 kPa, Fluid (supercritical or subcritical phases) | 0.01932
402.79 K, 846 kPa, Fluid (supercritical or subcritical phases) | 0.01931
402.79 K, 21633 kPa, Liquid | 0.06986
402.8 K, 21636 kPa, Liquid | 0.06986
402.82 K, 28727 kPa, Liquid | 0.07362
402.84 K, 5979 kPa, Liquid | 0.05886
402.84 K, 5987 kPa, Liquid | 0.05889
402.84 K, 11088 kPa, Liquid | 0.0631
402.84 K, 28733 kPa, Liquid | 0.07365
402.85 K, 11093 kPa, Liquid | 0.06312
402.86 K, 18624 kPa, Liquid | 0.06805
402.87 K, 18643 kPa, Liquid | 0.06812
402.89 K, 4691 kPa, Liquid | 0.05763
402.89 K, 4699 kPa, Liquid | 0.05767
402.9 K, 9108 kPa, Liquid | 0.06161
402.9 K, 33571 kPa, Liquid | 0.07603
402.91 K, 674 kPa, Fluid (supercritical or subcritical phases) | 0.01931
402.91 K, 9096 kPa, Liquid | 0.0616
402.91 K, 33586 kPa, Liquid | 0.07604
402.93 K, 3567 kPa, Liquid | 0.05645
402.94 K, 3574 kPa, Liquid | 0.05661
402.96 K, 15767 kPa, Liquid | 0.06628
402.96 K, 24990 kPa, Liquid | 0.07167
402.96 K, 25002 kPa, Liquid | 0.07171
402.97 K, 7096 kPa, Liquid | 0.05991
402.97 K, 15769 kPa, Liquid | 0.0663
402.98 K, 2633 kPa, Liquid | 0.05541
402.98 K, 7087 kPa, Liquid | 0.05989
402.99 K, 2643 kPa, Liquid | 0.05551
403 K, 1856 kPa, Liquid | 0.0546
403.01 K, 1850 kPa, Liquid | 0.05458
403.03 K, 21637 kPa, Liquid | 0.06984
403.04 K, 13347 kPa, Liquid | 0.06471
403.04 K, 13368 kPa, Liquid | 0.06474
403.07 K, 21655 kPa, Liquid | 0.06986
403.09 K, 28719 kPa, Liquid | 0.0736
403.1 K, 28719 kPa, Liquid | 0.07336
403.11 K, 5980 kPa, Liquid | 0.05886
403.12 K, 5983 kPa, Liquid | 0.05891
403.12 K, 11089 kPa, Liquid | 0.06307
403.12 K, 11091 kPa, Liquid | 0.06308
403.14 K, 18630 kPa, Liquid | 0.06809
403.15 K, 18626 kPa, Liquid | 0.06808
403.17 K, 4697 kPa, Liquid | 0.05766
403.18 K, 4698 kPa, Liquid | 0.05772
403.18 K, 9094 kPa, Liquid | 0.06153
403.19 K, 9095 kPa, Liquid | 0.06162
403.19 K, 33557 kPa, Liquid | 0.076
403.2 K, 33576 kPa, Liquid | 0.07601
403.23 K, 3569 kPa, Liquid | 0.0565
403.24 K, 3565 kPa, Liquid | 0.05654
403.24 K, 15779 kPa, Liquid | 0.06628
403.24 K, 25000 kPa, Liquid | 0.07167
403.25 K, 15789 kPa, Liquid | 0.06631
403.25 K, 24985 kPa, Liquid | 0.07165
403.27 K, 2641 kPa, Liquid | 0.05557
403.27 K, 7090 kPa, Liquid | 0.05988
403.27 K, 7094 kPa, Liquid | 0.05994
403.28 K, 2638 kPa, Liquid | 0.05558
403.3 K, 1852 kPa, Liquid | 0.05468
403.31 K, 1856 kPa, Liquid | 0.05476
403.32 K, 13355 kPa, Liquid | 0.06468
403.33 K, 13350 kPa, Liquid | 0.06467
403.33 K, 21631 kPa, Liquid | 0.0698
403.33 K, 21643 kPa, Liquid | 0.06984
403.37 K, 28710 kPa, Liquid | 0.07356
403.37 K, 28735 kPa, Liquid | 0.0736
403.39 K, 11081 kPa, Liquid | 0.06304
403.4 K, 5980 kPa, Liquid | 0.05891
403.4 K, 11095 kPa, Liquid | 0.06309
